Measured values from PubChem BioAssay (NCI).
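Results reflect a 48-hour exposure of cells in 96-well plates to compound at five concentrations. The concentration for full growth arrest is given as TGI.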

Columns and labels:
Experiment in all cases: DTP human tumour cell line panel, 48 h
786-0 renal = test system: 786-0 renal
A498 renal = test system: A498 renal
A549 NSCLC = test system: A549 NSCLC
ACHN renal = test system: ACHN renal
CAKI-1 renal = test system: CAKI-1 renal
CCRF-CEM leukemia = test system: CCRF-CEM leukemia
COLO 205 colon = test system: COLO 205 colon
DLD-1 colon = test system: DLD-1 colon
DMS 273 small cell lung = test system: DMS 273 small cell lung
EKVX NSCLC = test system: EKVX NSCLC
HCC-2998 colon = test system: HCC-2998 colon
HCT-15 colon = test system: HCT-15 colon
HL-60(TB) leukemia = test system: HL-60(TB) leukemia
HOP-18 NSCLC = test system: HOP-18 NSCLC
HOP-92 NSCLC = test system: HOP-92 NSCLC
HT29 colon = test system: HT29 colon
IGROV1 ovarian = test system: IGROV1 ovarian
K-562 leukemia = test system: K-562 leukemia
KM12 colon = test system: KM12 colon
KM20L2 colon = test system: KM20L2 colon
LOX IMVI melanoma = test system: LOX IMVI melanoma
LXFL 529 NSCLC = test system: LXFL 529 NSCLC
M14 melanoma = test system: M14 melanoma
M19-MEL melanoma = test system: M19-MEL melanoma
MALME-3M melanoma = test system: MALME-3M melanoma
MOLT-4 leukemia = test system: MOLT-4 leukemia
NCI-H226 lung = test system: NCI-H226 lung
NCI-H23 lung = test system: NCI-H23 lung
NCI-H460 lung = test system: NCI-H460 lung
NCI-H522 lung = test system: NCI-H522 lung
OVCAR-3 ovarian = test system: OVCAR-3 ovarian
OVCAR-4 ovarian = test system: OVCAR-4 ovarian
OVCAR-5 ovarian = test system: OVCAR-5 ovarian
OVCAR-8 ovarian = test system: OVCAR-8 ovarian
RPMI-8226 leukemia = test system: RPMI-8226 leukemia
RXF 393 renal = test system: RXF 393 renal
SF-268 CNS = test system: SF-268 CNS
SF-295 CNS = test system: SF-295 CNS
SF-539 CNS = test system: SF-539 CNS
SK-MEL-2 melanoma = test system: SK-MEL-2 melanoma
SK-MEL-28 melanoma = test system: SK-MEL-28 melanoma
SK-MEL-5 melanoma = test system: SK-MEL-5 melanoma
SK-OV-3 ovarian = test system: SK-OV-3 ovarian
SN12C renal = test system: SN12C renal
SNB-19 CNS = test system: SNB-19 CNS
SNB-75 CNS = test system: SNB-75 CNS
SW-620 colon = test system: SW-620 colon
TK-10 renal = test system: TK-10 renal
U251 CNS = test system: U251 CNS
UACC-257 melanoma = test system: UACC-257 melanoma
UACC-62 melanoma = test system: UACC-62 melanoma
UO-31 renal = test system: UO-31 renal
XF 498 CNS = test system: XF 498 CNS
DMS 114 small cell lung = test system: DMS 114 small cell lung
HCT-116 colon = test system: HCT-116 colon
HOP-62 NSCLC = test system: HOP-62 NSCLC
SNB-78 CNS = test system: SNB-78 CNS
SR leukemia = test system: SR leukemia

Question: Which results are given for Cc1ccccc1N(CC(=O)O)S(=O)(=O)c1ccccc1?
Answer: TGI (786-0 renal): > 100 µM; TGI (A498 renal): > 100 µM; TGI (A549 NSCLC): > 100 µM; TGI (ACHN renal): > 100 µM; TGI (CAKI-1 renal): > 100 µM; TGI (CCRF-CEM leukemia): > 100 µM; TGI (COLO 205 colon): > 100 µM; TGI (DLD-1 colon): > 100 µM; TGI (DMS 273 small cell lung): > 100 µM; TGI (EKVX NSCLC): > 100 µM; TGI (HCC-2998 colon): > 100 µM; TGI (HCT-15 colon): > 100 µM; TGI (HL-60(TB) leukemia): > 100 µM; TGI (HOP-18 NSCLC): > 100 µM; TGI (HOP-92 NSCLC): > 100 µM; TGI (HT29 colon): > 100 µM; TGI (IGROV1 ovarian): > 100 µM; TGI (K-562 leukemia): > 100 µM; TGI (KM12 colon): > 100 µM; TGI (KM20L2 colon): > 100 µM; TGI (LOX IMVI melanoma): > 100 µM; TGI (LXFL 529 NSCLC): > 100 µM; TGI (M14 melanoma): > 100 µM; TGI (M19-MEL melanoma): > 100 µM; TGI (MALME-3M melanoma): > 100 µM; TGI (MOLT-4 leukemia): > 100 µM; TGI (NCI-H226 lung): > 100 µM; TGI (NCI-H23 lung): > 100 µM; TGI (NCI-H460 lung): > 100 µM; TGI (NCI-H522 lung): > 100 µM; TGI (OVCAR-3 ovarian): > 100 µM; TGI (OVCAR-4 ovarian): > 100 µM; TGI (OVCAR-5 ovarian): > 100 µM; TGI (OVCAR-8 ovarian): > 100 µM; TGI (RPMI-8226 leukemia): > 100 µM; TGI (RXF 393 renal): > 100 µM; TGI (SF-268 CNS): > 100 µM; TGI (SF-295 CNS): > 100 µM; TGI (SF-539 CNS): > 100 µM; TGI (SK-MEL-2 melanoma): > 100 µM; TGI (SK-MEL-28 melanoma): > 100 µM; TGI (SK-MEL-5 melanoma): > 100 µM; TGI (SK-OV-3 ovarian): > 100 µM; TGI (SN12C renal): > 100 µM; TGI (SNB-19 CNS): > 100 µM; TGI (SNB-75 CNS): > 100 µM; TGI (SW-620 colon): > 100 µM; TGI (TK-10 renal): > 100 µM; TGI (U251 CNS): > 100 µM; TGI (UACC-257 melanoma): > 100 µM; TGI (UACC-62 melanoma): > 100 µM; TGI (UO-31 renal): > 100 µM; TGI (XF 498 CNS): > 100 µM

Question: Which results are given for CCOP1(=O)C=CC(Cl)=C(C)C1 (configuration not stated)?
Answer: TGI (786-0 renal): 30.6 µM; TGI (A498 renal): > 71.1 µM; TGI (A549 NSCLC): > 100 µM; TGI (ACHN renal): 24.8 µM; TGI (CAKI-1 renal): 23.7 µM; TGI (CCRF-CEM leukemia): 12 µM; TGI (COLO 205 colon): 44.4 µM; TGI (DLD-1 colon): 25.4 µM; TGI (DMS 114 small cell lung): 39.4 µM; TGI (EKVX NSCLC): > 56.8 µM; TGI (HCC-2998 colon): 29.6 µM; TGI (HCT-116 colon): 44.7 µM; TGI (HCT-15 colon): 30.1 µM; TGI (HL-60(TB) leukemia): 15.3 µM; TGI (HOP-18 NSCLC): 31.2 µM; TGI (HOP-62 NSCLC): 70 µM; TGI (HOP-92 NSCLC): 34.3 µM; TGI (HT29 colon): 28.5 µM; TGI (IGROV1 ovarian): 55.1 µM; TGI (K-562 leukemia): 20.4 µM; TGI (KM12 colon): 33.5 µM; TGI (KM20L2 colon): 31.8 µM; TGI (LOX IMVI melanoma): 39 µM; TGI (LXFL 529 NSCLC): 25.9 µM; TGI (M14 melanoma): 29 µM; TGI (M19-MEL melanoma): > 57.3 µM; TGI (MALME-3M melanoma): 29 µM; TGI (MOLT-4 leukemia): 19.9 µM; TGI (NCI-H226 lung): > 100 µM; TGI (NCI-H23 lung): 18.1 µM; TGI (NCI-H460 lung): 74.3 µM; TGI (NCI-H522 lung): 17.3 µM; TGI (OVCAR-3 ovarian): 35 µM; TGI (OVCAR-4 ovarian): 30.7 µM; TGI (OVCAR-5 ovarian): 50.2 µM; TGI (OVCAR-8 ovarian): 71.6 µM; TGI (RPMI-8226 leukemia): > 59.4 µM; TGI (RXF 393 renal): 14.3 µM; TGI (SF-268 CNS): 56.9 µM; TGI (SF-295 CNS): > 100 µM; TGI (SF-539 CNS): 43.6 µM; TGI (SK-MEL-2 melanoma): 27.5 µM; TGI (SK-MEL-28 melanoma): 30.3 µM; TGI (SK-MEL-5 melanoma): 36.5 µM; TGI (SK-OV-3 ovarian): > 100 µM; TGI (SN12C renal): 16.3 µM; TGI (SNB-19 CNS): > 100 µM; TGI (SNB-75 CNS): 19.9 µM; TGI (SNB-78 CNS): 47.5 µM; TGI (SW-620 colon): 30.4 µM; TGI (TK-10 renal): 34.2 µM; TGI (U251 CNS): 65.3 µM; TGI (UACC-257 melanoma): 39.8 µM; TGI (UACC-62 melanoma): 32.2 µM; TGI (UO-31 renal): > 71.5 µM; TGI (XF 498 CNS): 34.3 µM

Question: With NC(=O)NN/C=C(/C=Nc1ccccc1)[N+](=O)[O-] as the compound, how does the TGI (786-0 renal) read?
Answer: > 100 µM

Question: And the TGI (A549 NSCLC)?
Answer: > 100 µM

Question: What about the TGI (ACHN renal) of the same compound?
Answer: > 100 µM

Question: And the TGI (CCRF-CEM leukemia)?
Answer: > 100 µM

Question: What about the TGI (COLO 205 colon) of the same compound?
Answer: > 100 µM

Question: What about the TGI (DLD-1 colon) of the same compound?
Answer: > 100 µM

Question: What about the TGI (DMS 114 small cell lung) of the same compound?
Answer: > 100 µM

Question: What about the TGI (DMS 273 small cell lung) of the same compound?
Answer: > 100 µM

Question: And the TGI (EKVX NSCLC)?
Answer: > 100 µM

Question: And the TGI (HCC-2998 colon)?
Answer: > 100 µM

Question: And the TGI (HCT-116 colon)?
Answer: > 100 µM

Question: What about the TGI (HCT-15 colon) of the same compound?
Answer: > 100 µM

Question: What about the TGI (HL-60(TB) leukemia) of the same compound?
Answer: > 100 µM

Question: What about the TGI (HOP-18 NSCLC) of the same compound?
Answer: > 100 µM

Question: And the TGI (HOP-62 NSCLC)?
Answer: > 100 µM

Question: What about the TGI (HOP-92 NSCLC) of the same compound?
Answer: > 100 µM

Question: And the TGI (HT29 colon)?
Answer: > 100 µM

Question: What about the TGI (IGROV1 ovarian) of the same compound?
Answer: > 100 µM

Question: What about the TGI (K-562 leukemia) of the same compound?
Answer: > 100 µM

Question: What about the TGI (KM20L2 colon) of the same compound?
Answer: > 100 µM

Question: What about the TGI (LOX IMVI melanoma) of the same compound?
Answer: > 100 µM

Question: What about the TGI (LXFL 529 NSCLC) of the same compound?
Answer: > 100 µM

Question: And the TGI (M14 melanoma)?
Answer: > 100 µM

Question: And the TGI (M19-MEL melanoma)?
Answer: > 100 µM

Question: What about the TGI (MOLT-4 leukemia) of the same compound?
Answer: > 100 µM

Question: What about the TGI (NCI-H23 lung) of the same compound?
Answer: > 100 µM

Question: What about the TGI (NCI-H460 lung) of the same compound?
Answer: > 100 µM

Question: And the TGI (NCI-H522 lung)?
Answer: > 100 µM

Question: And the TGI (OVCAR-3 ovarian)?
Answer: > 100 µM

Question: And the TGI (OVCAR-4 ovarian)?
Answer: > 100 µM

Question: And the TGI (OVCAR-8 ovarian)?
Answer: > 100 µM

Question: And the TGI (RPMI-8226 leukemia)?
Answer: > 100 µM

Question: And the TGI (RXF 393 renal)?
Answer: > 100 µM

Question: And the TGI (SF-268 CNS)?
Answer: > 100 µM

Question: And the TGI (SF-295 CNS)?
Answer: > 100 µM

Question: What about the TGI (SK-MEL-28 melanoma) of the same compound?
Answer: > 100 µM

Question: And the TGI (SK-MEL-5 melanoma)?
Answer: > 100 µM

Question: And the TGI (SK-OV-3 ovarian)?
Answer: > 100 µM

Question: What about the TGI (SN12C renal) of the same compound?
Answer: > 100 µM

Question: What about the TGI (SNB-19 CNS) of the same compound?
Answer: > 100 µM

Question: What about the TGI (SR leukemia) of the same compound?
Answer: > 100 µM

Question: What about the TGI (SW-620 colon) of the same compound?
Answer: > 100 µM

Question: And the TGI (TK-10 renal)?
Answer: > 100 µM

Question: What about the TGI (U251 CNS) of the same compound?
Answer: > 100 µM

Question: What about the TGI (UACC-257 melanoma) of the same compound?
Answer: > 100 µM

Question: And the TGI (UACC-62 melanoma)?
Answer: > 100 µM

Question: What about the TGI (UO-31 renal) of the same compound?
Answer: > 100 µM

Question: And the TGI (XF 498 CNS)?
Answer: > 100 µM
